{"source": "PubChem BioAssay (NCI)", "assay_in_all_cases": "NCI anticancer screen, dose series, 48 h", "key": {"786-0 renal": {"tested_on": "786-0 renal"}, "A498 renal": {"tested_on": "A498 renal"}, "A549 NSCLC": {"tested_on": "A549 NSCLC"}, "ACHN renal": {"tested_on": "ACHN renal"}, "CAKI-1 renal": {"tested_on": "CAKI-1 renal"}, "CCRF-CEM leukemia": {"tested_on": "CCRF-CEM leukemia"}, "COLO 205 colon": {"tested_on": "COLO 205 colon"}, "DU-145 prostate": {"tested_on": "DU-145 prostate"}, "EKVX NSCLC": {"tested_on": "EKVX NSCLC"}, "HCC-2998 colon": {"tested_on": "HCC-2998 colon"}, "HCT-116 colon": {"tested_on": "HCT-116 colon"}, "HCT-15 colon": {"tested_on": "HCT-15 colon"}, "HL-60(TB) leukemia": {"tested_on": "HL-60(TB) leukemia"}, "HOP-62 NSCLC": {"tested_on": "HOP-62 NSCLC"}, "HOP-92 NSCLC": {"tested_on": "HOP-92 NSCLC"}, "HS 578T breast": {"tested_on": "HS 578T breast"}, "HT29 colon": {"tested_on": "HT29 colon"}, "IGROV1 ovarian": {"tested_on": "IGROV1 ovarian"}, "K-562 leukemia": {"tested_on": "K-562 leukemia"}, "KM12 colon": {"tested_on": "KM12 colon"}, "LOX IMVI melanoma": {"tested_on": "LOX IMVI melanoma"}, "M14 melanoma": {"tested_on": "M14 melanoma"}, "MALME-3M melanoma": {"tested_on": "MALME-3M melanoma"}, "MCF7 breast": {"tested_on": "MCF7 breast"}, "MDA-MB-231 breast": {"tested_on": "MDA-MB-231 breast"}, "MDA-MB-435": {"tested_on": "MDA-MB-435"}, "MOLT-4 leukemia": {"tested_on": "MOLT-4 leukemia"}}, "note": "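Assay format: 96-well plates, 48-hour exposure. GI50: concentration for 50% inhibition of growth. TGI marks complete inhibition of growth.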", "data": [{"smiles": "COc1ccc(-n2cc(-c3cc(OC)c(OC)c(OC)c3)nc2SCc2ccccc2)cc1", "values": [{"measurement": "GI50", "setting": "786-0 renal", "value": "> 100", "unit": "µM"}, {"measurement": "TGI", "setting": "786-0 renal", "value": "> 100", "unit": "µM"}, {"measurement": "GI50", "setting": "A498 renal", "value": "> 100", "unit": "µM"}, {"measurement": "TGI", "setting": "A498 renal", "value": "> 100", "unit": "µM"}, {"measurement": "GI50", "setting": "A549 NSCLC", "value": 79.6, "unit": "µM"}, {"measurement": "TGI", "setting": "A549 NSCLC", "value": "> 100", "unit": "µM"}, {"measurement": "GI50", "setting": "ACHN renal", "value": 78.8, "unit": "µM"}, {"measurement": "TGI", "setting": "ACHN renal", "value": "> 100", "unit": "µM"}, {"measurement": "GI50", "setting": "CAKI-1 renal", "value": "> 100", "unit": "µM"}, {"measurement": "TGI", "setting": "CAKI-1 renal", "value": "> 100", "unit": "µM"}, {"measurement": "GI50", "setting": "CCRF-CEM leukemia", "value": 3.63, "unit": "µM"}, {"measurement": "TGI", "setting": "CCRF-CEM leukemia", "value": "> 100", "unit": "µM"}, {"measurement": "GI50", "setting": "COLO 205 colon", "value": 49.5, "unit": "µM"}, {"measurement": "TGI", "setting": "COLO 205 colon", "value": "> 100", "unit": "µM"}, {"measurement": "GI50", "setting": "DU-145 prostate", "value": "> 100", "unit": "µM"}, {"measurement": "TGI", "setting": "DU-145 prostate", "value": "> 100", "unit": "µM"}, {"measurement": "GI50", "setting": "EKVX NSCLC", "value": 11.6, "unit": "µM"}, {"measurement": "TGI", "setting": "EKVX NSCLC", "value": "> 100", "unit": "µM"}, {"measurement": "GI50", "setting": "HCC-2998 colon", "value": 45.5, "unit": "µM"}, {"measurement": "TGI", "setting": "HCC-2998 colon", "value": "> 100", "unit": "µM"}, {"measurement": "GI50", "setting": "HCT-116 colon", "value": 17.5, "unit": "µM"}, {"measurement": "TGI", "setting": "HCT-116 colon", "value": "> 100", "unit": "µM"}, {"measurement": "GI50", "setting": "HCT-15 colon", "value": "> 100", "unit": "µM"}, {"measurement": "TGI", "setting": "HCT-15 colon", "value": "> 100", "unit": "µM"}, {"measurement": "GI50", "setting": "HL-60(TB) leukemia", "value": 10, "unit": "µM"}, {"measurement": "TGI", "setting": "HL-60(TB) leukemia", "value": "> 100", "unit": "µM"}, {"measurement": "GI50", "setting": "HOP-62 NSCLC", "value": 78, "unit": "µM"}, {"measurement": "TGI", "setting": "HOP-62 NSCLC", "value": "> 100", "unit": "µM"}, {"measurement": "GI50", "setting": "HOP-92 NSCLC", "value": 28.9, "unit": "µM"}, {"measurement": "TGI", "setting": "HOP-92 NSCLC", "value": "> 100", "unit": "µM"}, {"measurement": "GI50", "setting": "HS 578T breast", "value": "> 100", "unit": "µM"}, {"measurement": "TGI", "setting": "HS 578T breast", "value": "> 100", "unit": "µM"}, {"measurement": "GI50", "setting": "HT29 colon", "value": 35.6, "unit": "µM"}, {"measurement": "TGI", "setting": "HT29 colon", "value": "> 100", "unit": "µM"}, {"measurement": "GI50", "setting": "IGROV1 ovarian", "value": "> 100", "unit": "µM"}, {"measurement": "TGI", "setting": "IGROV1 ovarian", "value": "> 100", "unit": "µM"}, {"measurement": "GI50", "setting": "K-562 leukemia", "value": 9.43, "unit": "µM"}, {"measurement": "TGI", "setting": "K-562 leukemia", "value": "> 100", "unit": "µM"}, {"measurement": "GI50", "setting": "KM12 colon", "value": 60, "unit": "µM"}, {"measurement": "TGI", "setting": "KM12 colon", "value": "> 100", "unit": "µM"}, {"measurement": "GI50", "setting": "LOX IMVI melanoma", "value": 74.7, "unit": "µM"}, {"measurement": "TGI", "setting": "LOX IMVI melanoma", "value": "> 100", "unit": "µM"}, {"measurement": "GI50", "setting": "M14 melanoma", "value": "> 100", "unit": "µM"}, {"measurement": "TGI", "setting": "M14 melanoma", "value": "> 100", "unit": "µM"}, {"measurement": "GI50", "setting": "MALME-3M melanoma", "value": "> 100", "unit": "µM"}, {"measurement": "TGI", "setting": "MALME-3M melanoma", "value": "> 100", "unit": "µM"}, {"measurement": "GI50", "setting": "MCF7 breast", "value": 15.4, "unit": "µM"}, {"measurement": "TGI", "setting": "MCF7 breast", "value": "> 100", "unit": "µM"}, {"measurement": "GI50", "setting": "MDA-MB-231 breast", "value": "> 100", "unit": "µM"}, {"measurement": "TGI", "setting": "MDA-MB-231 breast", "value": "> 100", "unit": "µM"}, {"measurement": "GI50", "setting": "MDA-MB-435", "value": "> 100", "unit": "µM"}, {"measurement": "TGI", "setting": "MDA-MB-435", "value": "> 100", "unit": "µM"}, {"measurement": "GI50", "setting": "MOLT-4 leukemia", "value": 9.03, "unit": "µM"}, {"measurement": "TGI", "setting": "MOLT-4 leukemia", "value": "> 100", "unit": "µM"}]}]}
